From patent US8318787B2, “Prodrugs of (3,5-bis(4-fluorophenyl)tetrahydro-1H-oxazolo[3,4-C]oxazol-7A-yl)methanol and derivatives thereof” (University of Kansas, priority 2005, dated 2012)

Key:
[1] = system: primary cortical neurons; assay: Neuroprotection of primary cortical neurons exposed to Aβ peptides (Live/Dead assay); format: cell-based; conditions: Rattus norvegicus, Primary cortical neuron, Aβ25-35, 48 hours, read-out: EC50 (concentration that lead to a 50% increase in neuronal survival in the presence of the Aβ peptide)
Protocol: This example illustrates the neuroprotective effects of TH-237A in neuronal cells after exposure to Aβ peptides. To prepare the primary neurons, dissociated cortical cell cultures were established from embryonic day 18 rat fetuses recovered from pregnant Sprague Dawley rats (Harlan Sprague Dawley, Inc., Indianapolis, Ind.) as described previously (Michaelis et al., 1994). Pups were delivered by cesarean section while the dam was anesthetized with pentobarbital (140 mg/kg, i.p.), and the brains were recovered according to National Institutes of Health-approved protocols. After the final precipitation step, neurons were suspended in fresh DMEM/F12 (Sigma Chemical Co. St. Louis, Mo.) with 10% fetal bovine serum (Atlanta Biologicals, Atlanta, Ga.) and plated at a density of 2.5×10^5 cells in 35 mm glass bottom microwell dishes (Mat-Tek Co., Ashland, Mass.), coated with poly-D-lysine. Serum-containing medium was removed after 24 hours, and the cells were maintained in serum-free DMEM/F12 containing the N2 supplements. […]
After five days in culture, the primary neurons were exposed to either Aβ25-35 or Aβ1-42 in the presence or absence of concentrations of TH-237A ranging from 0.5 to 60 nM. […] Each batch of Aβ peptide was analyzed for β-sheet formation by circular dichroism, but no effort was made to separate oligomers from fibrils. […]
The effects of the Aβ peptides and TH-237A were primarily determined by monitoring neuronal cell survival using the Live/Dead assay as previously described (Michaelis et al., 1998; Michaelis et al., 2005). […] The number of viable (green) and dead (red) neurons was determined by counting the cells, and this was done in 6-12 microscopic fields per culture dish in duplicate dishes for each treatment. […] Thus, approximately 1500 neurons were scored under each treatment condition. The fraction of viable cells in each field was calculated based on the total number of cells counted in each field. Raw data from each experiment were combined and the significance of differences between cultures exposed to various treatments was determined using Student's t test. […]

[2] = Oral absorption of parent compound and prodrug (plasma levels); format: in vivo
Protocol: The prodrug compound (3,5-bis(4-fluorophenyl)tetrahydro-1H-oxazolo[3,4-C]oxazol-7a-yl)methanol phosphate was studied for oral absorption. A formulation of (3,5-bis(4-fluorophenyl)tetrahydro-1H-oxazolo[3,4-C]oxazol-7a-yl)methanol was prepared into a suspension and into a composition with Captisol, and the prodrug thereof was formulated into an aqueous solution. Oral absorption behavior of the parent compound is depicted in FIG. 8. As previously mentioned, the systemic exposure of the parent compound following oral administration of the parent compound as a suspension is limited compared to a solution of the parent compound administered in Captisol. The systemic exposure of the prodrug compound following oral administration of an aqueous solution of the prodrug compound is depicted in FIG. 9.

| Structure (SMILES) | melting point [°C] | also measured |
| --- | --- | --- |
| OCC12CO[C@H](c3ccc(C(F)(F)F)cc3)N1[C@@H](c1ccc(C(F)(F)F)cc1)OC2 (racemic) [TH-242B, (3R,5R) and (3S,5S) (3,5-bis(4-trifluoromethylphenyl)tetrahydro-1H-oxazolo[3,4-c]oxazol-7a-yl)methanol] | 120 |  |
| OCC1(CO)COC(c2ccc(C(F)(F)F)cc2)N1 (racemic) [TH-OPENTFM, (R/S)-(2-(4-(trifluoromethyl)phenyl)oxazolidine-4,4-diyl)dimethanol] | 98 |  |
| OC[C@]12CO[C@H](c3ccc(C(F)(F)F)cc3)N1[C@H](c1ccc(C(F)(F)F)cc1)OC2 [TH-242A] | 102 |  |
| OCC12CO[C@H](c3ccc(F)cc3)N1[C@@H](c1ccc(F)cc1)OC2 (racemic) [TH-236B, (3R,5R) and (3S,5S) (3,5-bis(4-fluorophenyl)tetrahydro-1H-oxazolo[3,4-c]oxazol-7a-yl)methanol] |  | EC50 [1]: ~40 nM |
| OCC12COC(c3ccc(F)cc3)N1C(c1ccc(F)cc1)OC2 (centres unmarked) [(3,5-bis(4-fluorophenyl)tetrahydro-1H-oxazolo[3,4-C]oxazol-7a-yl)methanol] |  | systemic exposure after oral administration as a suspension compared to solution in Captisol ([2]; suspension): limited |
| OCC1(CO)COC(c2ccc(F)cc2)N1 (racemic) [TH-OPEN, (R/S)-(2-(4-fluorophenyl)oxazolidine-4,4-diyl)dimethanol] | 89 | EC50 [1]: ~50 nM |
| O=P([O-])([O-])OCC12COC(c3ccc(F)cc3)N1C(c1ccc(F)cc1)OC2.[Na+].[Na+] (centres unmarked) [(3,5-bis(4-fluorophenyl)tetrahydro-1H-oxazolo[3,4-C]oxazol-7a-yl)methanol phosphate] |  | systemic exposure of drug from aqueous prodrug solution relative to Captisol solution of the parent compound ([2]; aqueous solution of prodrug): equivalent or better |
